In patent publication US12421249B2, “Inhibitors of APOL1 and methods of using same” (Vertex Pharmaceuticals Incorporated, priority 2020, dated 2025):

Biological target: T1, APOL1 G1 (Homo sapiens, UniProt O14791, I384M/S342G)
T1 sequence (O14791 28-398 S342G/I384M): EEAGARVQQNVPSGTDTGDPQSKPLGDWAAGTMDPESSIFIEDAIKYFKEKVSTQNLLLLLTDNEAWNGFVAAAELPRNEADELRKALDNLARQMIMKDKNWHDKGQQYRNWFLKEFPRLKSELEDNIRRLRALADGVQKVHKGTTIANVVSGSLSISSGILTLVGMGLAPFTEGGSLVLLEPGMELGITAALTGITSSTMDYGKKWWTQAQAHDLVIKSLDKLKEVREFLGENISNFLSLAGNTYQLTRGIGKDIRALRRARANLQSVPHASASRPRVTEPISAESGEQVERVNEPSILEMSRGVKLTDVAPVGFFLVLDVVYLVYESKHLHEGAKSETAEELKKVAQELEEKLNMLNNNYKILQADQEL
Test: Trypanosoma brucei brucei Lysis Assay Using APOL1 Recombinant Protein (AlamarBlue viability readout)
Format: cell-based
Conditions: Trypanosome Assay; IP50 = IC50 for cell proliferation; read-out: Trypanosome Assay IP50
Description: Trypanosoma brucei brucei is a blood stream parasite to which human, gorillas, and baboons are immune due to the presence of the APOL1 protein in their HDL particles. The protein is uptaken by the parasite via the TbHpHb receptor located in its flagellar pocket and is bonded by the Hpr protein contained in the HDL particles which triggers the receptor endocytosis by the parasite.
Following endocytosis, the formed vesicle containing the HDL particle matures from early to late endosome, and subsequently to lysosome. The concomitant pH change in the lumen of the vesicle triggers the insertion of the APOL1 protein into the membrane of the late endosome/lysosome and hereby triggers lysosomal membrane permeabilization and as a further downstream event, trypanosome lysis. Trypanosoma brucei brucei is sensitive to lysis by all three APOL1 variants (G0, G1, and G2).
The Trypanosoma brucei brucei lysis assay is a lysis assay of the parasite using recombinant APOL1 protein variant followed by a fluorescent detection method of viability by the addition of AlamarBlue reagent to the assay well, a general metabolic redox indicator (AlamarBlue assay).
Briefly, the AlamarBlue active compound, resazurin, a blue, water soluble, non-toxic and cell permeable molecule, which can be followed by absorbance, is reduced by various metabolic pathways into resorufin, a red compound which can be followed by either absorbance or fluorescence. The assay allows the calculation of the percent viability (percent of living Trypanosomes remaining in each well) at the end of a lysis relative to the untreated condition by interpolation of fluorescent values (FLU) on a standard curve with a known amount of seeded trypanosome/well.
Trypanosoma brucei brucei (ATCC, Cat. No. PRA-382)
• Lister 427 VSG 221 bloodstream form.
Equipment • E1-Clip Tip pipette 12 channel adjustable 2-125 μL, Cat. No. 4672070BT • ThermoFisher MultiDrop 384, Cat. No. 5840300 • Multidrop • Agilent Bravo, Cat. No. G5409A • Bravo • SpectraMax M5 Assay Ready Plates (ARPs) • ARPs comes in two formats: • […] final top concentration with a 2.5 fold dilution down. • […] final top concentration with a 3 fold dilution down. • Both have a 10 point Dose response. • 0.1% DMSO final in the Black Assay Plate. • Compounds are diluted 1000 fold in the Black Assay Plate. • Each plate is designed for 14 compounds in duplicate. • In the final Black Assay Plate: • Column 1: Media only (no APOL1) (100% viable) • Column 2-23: 0.05 μg/mL APOL1 (˜EC90) (10% viable with APOL1) • Column 24: 0.1 μg/mL APOL1 (EC100) (Approx. […] Step 2, Day 4 • Centrifuge at 800×g for 5 minutes at room temperature. • Resuspend in 1 mL media. • Make a 1:25 fold dilution (10 μL/240 μL media). • Count on a hemocytometer (after adding parasites). • Let sit for 1-2 minutes for the parasites to settle. • Count should be approximately 100 viable motile parasites/16 grid or approximately 25×10^6 parasites/flask. • Passage the parasites by adding 1×10^6 parasites/T75 flask in 20 mL media. • Passage the parasites by adding 2.33×10^6 parasites/T175 flask in 46.6 mL media. • For every T75 flask should make enough for approximately 1.5×384 well assay plates. • For every T175 flask should make enough for approximately 3.8×384 well assay plates. Step 3, Day 6 • Centrifuge at 800×g for 5 minutes. • Resuspend in 3 mL assay media (No phenol red, no FBS) per 75 starting flask. • Resuspend in 7 mL assay media (No phenol red, no FBS) per 175 flask • Make a 1:25 fold dilution. • Count by hemocytometer. • Every T75 flask set up should have approximately 75×10^6 parasites/flask (verify doubling time=8.7 hours±1 hour). • Every T175 flask set up should have approximately 175×10^6 parasites/flask (verify doubling time=8.7 hours±1 hour). • Require 46×10^6 parasites per 384 well plate (at 120,000 parasites per well). […]

Row | Compound | IC50
1 | COc1ccc2[nH]c([C@@H]3C[C@]4(C[C@H](C)N3)OCCc3cc(Cl)sc34)cc2n1 (racemic) [Compound 84] | < 50 nM
2 | C[C@H]1C[C@@]2(C[C@@H](c3c[nH]cn3)N1)OCCc1cc(Cl)sc12 (racemic) [Compound 85] | < 50 nM
3 | C[C@H]1C[C@@]2(C[C@@H](c3cc(C4CC4)no3)N1)OCCc1cc(Cl)sc12 (racemic) [Compound 87] | < 50 nM
4 | C[C@H]1C[C@@]2(C[C@@H](c3cc(-c4ccccn4)n[nH]3)N1)OCCc1cc(Cl)sc12 (racemic) [Compound 88] | < 50 nM
5 | C[C@H]1C[C@@]2(C[C@@H](c3ccc(N(C)C)nc3)N1)OCCc1cc(Cl)sc12 (racemic) [Compound 89] | < 50 nM
6 | COCCn1cc([C@@H]2C[C@]3(C[C@H](C)N2)OCCc2cc(Cl)sc23)cn1 (racemic) [Compound 90] | < 50 nM
7 | C[C@H]1C[C@@]2(C[C@@H](c3cccnn3)N1)OCCc1cc(Cl)sc12 (racemic) [Compound 92] | < 50 nM
8 | C[C@H]1C[C@@]2(C[C@@H](c3ccnnc3)N1)OCCc1cc(Cl)sc12 (racemic) [Compound 93] | 50 to 500 nM
9 | Cc1ncc([C@@H]2C[C@]3(C[C@H](C)N2)OCCc2cc(Cl)sc23)o1 (racemic) [Compound 94] | < 50 nM
10 | C[C@H]1C[C@@]2(C[C@@H](c3cnc(NC(C)(C)CO)nc3)N1)OCCc1cc(Cl)sc12 (racemic) [Compound 95] | 50 to 500 nM
11 | C[C@H]1C[C@@]2(C[C@@H](c3ccon3)N1)OCCc1cc(Cl)sc12 (racemic) [Compound 96] | < 50 nM
12 | Cc1cc([C@@H]2C[C@]3(C[C@H](C)N2)OCCc2cc(Cl)sc23)nn1C (racemic) [Compound 98] | < 50 nM
13 | COc1ccc([C@@H]2C[C@]3(C[C@H](C)N2)OCCc2cc(Cl)sc23)cc1O (racemic) [Compound 99] | < 50 nM
14 | C[C@H]1C[C@@]2(C[C@@H](c3cnn(C4CCOCC4)c3)N1)OCCc1cc(Cl)sc12 (racemic) [Compound 100] | < 50 nM

Same assay, conditions: Trypanosome Assay; read-out: Trypanosome Assay Max Activity (%)

Row | Compound | Emax
15 | COc1ccc2[nH]c([C@@H]3C[C@]4(C[C@H](C)N3)OCCc3cc(Cl)sc34)cc2n1 (racemic) [Compound 84] | 112%
16 | C[C@H]1C[C@@]2(C[C@@H](c3cc(-c4ccccn4)n[nH]3)N1)OCCc1cc(Cl)sc12 (racemic) [Compound 88] | 98%
17 | C[C@H]1C[C@@]2(C[C@@H](c3ccc(N(C)C)nc3)N1)OCCc1cc(Cl)sc12 (racemic) [Compound 89] | 101%
18 | COCCn1cc([C@@H]2C[C@]3(C[C@H](C)N2)OCCc2cc(Cl)sc23)cn1 (racemic) [Compound 90] | 104%
19 | C[C@H]1C[C@@]2(C[C@@H](c3cccnn3)N1)OCCc1cc(Cl)sc12 (racemic) [Compound 92] | 103%
20 | C[C@H]1C[C@@]2(C[C@@H](c3ccnnc3)N1)OCCc1cc(Cl)sc12 (racemic) [Compound 93] | 112%
21 | Cc1ncc([C@@H]2C[C@]3(C[C@H](C)N2)OCCc2cc(Cl)sc23)o1 (racemic) [Compound 94] | 104%
22 | C[C@H]1C[C@@]2(C[C@@H](c3cnc(NC(C)(C)CO)nc3)N1)OCCc1cc(Cl)sc12 (racemic) [Compound 95] | 106%
23 | C[C@H]1C[C@@]2(C[C@@H](c3ccon3)N1)OCCc1cc(Cl)sc12 (racemic) [Compound 96] | 104%
24 | Cc1cc([C@@H]2C[C@]3(C[C@H](C)N2)OCCc2cc(Cl)sc23)nn1C (racemic) [Compound 98] | 110%
25 | COc1ccc([C@@H]2C[C@]3(C[C@H](C)N2)OCCc2cc(Cl)sc23)cc1O (racemic) [Compound 99] | 102%
26 | C[C@H]1C[C@@]2(C[C@@H](c3cnn(C4CCOCC4)c3)N1)OCCc1cc(Cl)sc12 (racemic) [Compound 100] | 99%

Biological target: T2, APOL1 (Homo sapiens, UniProt O14791)
T2 sequence (O14791 1-398 S342G/I384M): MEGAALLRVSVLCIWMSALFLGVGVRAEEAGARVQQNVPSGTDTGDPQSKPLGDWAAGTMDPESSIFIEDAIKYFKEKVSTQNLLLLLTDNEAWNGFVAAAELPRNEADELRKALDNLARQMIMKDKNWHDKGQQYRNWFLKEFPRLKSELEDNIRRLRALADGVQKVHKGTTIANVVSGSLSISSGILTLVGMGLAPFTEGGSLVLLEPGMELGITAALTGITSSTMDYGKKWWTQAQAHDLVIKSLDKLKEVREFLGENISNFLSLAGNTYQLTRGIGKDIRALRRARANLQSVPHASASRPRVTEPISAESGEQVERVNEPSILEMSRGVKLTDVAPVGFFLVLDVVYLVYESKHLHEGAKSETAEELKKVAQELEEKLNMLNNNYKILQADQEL
Test: Multi-Tox Assay (MultiTox-Fluor Multiplex Cytotoxicity Assay in tet-inducible APOL1 T-REx-HEK293 cells; Table 46 does not say which APOL1 variant G0/G1/G2)
Format: cell-based
Conditions: APOL1 variant not given

Row | Compound | IC90 | Multi-Tox Assay Max Activity (%)
27 | C[C@H]1C[C@@]2(C[C@@H](c3cc(-c4ccccn4)n[nH]3)N1)OCCc1cc(Cl)sc12 (racemic) [Compound 88] | < 50 nM | 99.3%
28 | Cc1cc([C@@H]2C[C@]3(C[C@H](C)N2)OCCc2cc(Cl)sc23)nn1C (racemic) [Compound 98] | – | 99.0%
29 | COc1ccc([C@@H]2C[C@]3(C[C@H](C)N2)OCCc2cc(Cl)sc23)cc1O (racemic) [Compound 99] | – | 99.0%

Same assay, conditions: IP50 = IC50 for cell proliferation, APOL1 variant not given

Row | Compound | IC50
30 | COc1ccc2[nH]c([C@@H]3C[C@]4(C[C@H](C)N3)OCCc3cc(Cl)sc34)cc2n1 (racemic) [Compound 84] | < 50 nM
31 | C[C@H]1C[C@@]2(C[C@@H](c3c[nH]cn3)N1)OCCc1cc(Cl)sc12 (racemic) [Compound 85] | < 50 nM
32 | C[C@H]1C[C@@]2(C[C@@H](c3cc(C4CC4)no3)N1)OCCc1cc(Cl)sc12 (racemic) [Compound 87] | < 50 nM
33 | C[C@H]1C[C@@]2(C[C@@H](c3cc(-c4ccccn4)n[nH]3)N1)OCCc1cc(Cl)sc12 (racemic) [Compound 88] | < 50 nM
34 | C[C@H]1C[C@@]2(C[C@@H](c3ccc(N(C)C)nc3)N1)OCCc1cc(Cl)sc12 (racemic) [Compound 89] | < 50 nM
35 | COCCn1cc([C@@H]2C[C@]3(C[C@H](C)N2)OCCc2cc(Cl)sc23)cn1 (racemic) [Compound 90] | < 50 nM
36 | C[C@H]1C[C@@]2(C[C@@H](c3cccnn3)N1)OCCc1cc(Cl)sc12 (racemic) [Compound 92] | < 50 nM
37 | C[C@H]1C[C@@]2(C[C@@H](c3ccnnc3)N1)OCCc1cc(Cl)sc12 (racemic) [Compound 93] | < 50 nM
38 | Cc1ncc([C@@H]2C[C@]3(C[C@H](C)N2)OCCc2cc(Cl)sc23)o1 (racemic) [Compound 94] | < 50 nM
39 | C[C@H]1C[C@@]2(C[C@@H](c3cnc(NC(C)(C)CO)nc3)N1)OCCc1cc(Cl)sc12 (racemic) [Compound 95] | < 50 nM
40 | C[C@H]1C[C@@]2(C[C@@H](c3ccon3)N1)OCCc1cc(Cl)sc12 (racemic) [Compound 96] | < 50 nM
41 | Cc1cc([C@@H]2C[C@]3(C[C@H](C)N2)OCCc2cc(Cl)sc23)nn1C (racemic) [Compound 98] | < 50 nM
42 | COc1ccc([C@@H]2C[C@]3(C[C@H](C)N2)OCCc2cc(Cl)sc23)cc1O (racemic) [Compound 99] | < 50 nM
43 | C[C@H]1C[C@@]2(C[C@@H](c3cnn(C4CCOCC4)c3)N1)OCCc1cc(Cl)sc12 (racemic) [Compound 100] | < 50 nM
